Measurements reported in article PMC10892093 (Pharmaceutics, 2024).
Like-named read-outs stand apart in the source and are kept apart here.

What was measured:
UGT1A9 = biological target: T1, UGT1A9 (Homo sapiens, UniProt O60656); test: Inhibition of R-oxazepam glucuronidation in rUGT1A9 microsomes (UGT-overexpressing HEK293); format: biochemical; details: for IC50: rUGT1A9
T1 construct: expressed in transfected cells; microsomal fraction
T1 sequence (O60656 26-530): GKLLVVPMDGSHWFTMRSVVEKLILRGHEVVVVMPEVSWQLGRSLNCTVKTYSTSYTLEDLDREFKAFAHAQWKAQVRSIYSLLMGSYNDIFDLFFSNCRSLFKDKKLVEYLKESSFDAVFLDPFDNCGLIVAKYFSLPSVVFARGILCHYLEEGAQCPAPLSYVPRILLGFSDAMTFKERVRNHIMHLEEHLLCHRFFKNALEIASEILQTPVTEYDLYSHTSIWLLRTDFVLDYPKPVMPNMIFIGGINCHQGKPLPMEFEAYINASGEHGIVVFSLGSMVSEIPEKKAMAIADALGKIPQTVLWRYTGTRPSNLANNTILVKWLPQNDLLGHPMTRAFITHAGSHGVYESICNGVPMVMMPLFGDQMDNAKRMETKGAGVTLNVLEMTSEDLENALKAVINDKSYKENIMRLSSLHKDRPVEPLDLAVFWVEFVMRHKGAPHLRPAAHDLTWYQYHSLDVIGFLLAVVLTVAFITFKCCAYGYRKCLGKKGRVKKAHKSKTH
Protocol: (§1) Human embryonic kidney cells (HEK293) stably overexpressing the single UGTs 1A9, 2B7, and 2B15 have been previously established and described. Cells were grown in DMEM supplemented with 350 μg/mL of geneticin and 10% FBS and harvested in PBS. Microsomal fractions of UGT-overexpressing cell lines were prepared by differential centrifugation using previously described protocols. Briefly, cell homogenates were prepared by resuspending pelleted cells in PBS, followed by five rounds of freeze–thaw cycles prior to homogenization. Recombinant microsomes (rUGTs) were prepared by centrifuging the cell homogenate at a low speed (9000× g for 30 min) followed by ultracentrifugation (34,000× g for 60 min), with the total protein subsequently determined using a BCA assay. Recombinant microsomes (UGT1A9 and 2B7) and homogenates (UGT2B15) were used for inhibition studies.
(§2) A Waters Corp BEH C18 Acquity UPLC column (1.7 µM, 2.1 × 100 mm) was used at a constant temperature of 40 °C for chromatographic separation. An elution gradient was used for 6.5 min with mobile phases A (5 mM ammonium formate) and B (100% methanol) under the following conditions: 90% A for 0.5 min, followed by a linear gradient for 3 min to 60% A, 1 min at 5% A, and re-equilibration for 1 min at 90% A.
(§3) The reaction was initiated by the addition of 4 mM UDPGA as the cofactor and incubated for 2 h at 37 °C. The reaction was terminated by adding 30 µL of an ice-cold stop solution (acetonitrile/methanol; 1:1). The reaction mixtures were centrifuged at 17,000× g for 30 min at 4 °C, and the supernatant was transferred to UPLC sample glass vial for analysis using UPLC–MS/MS (described above). […] As a positive control for inhibition assays, ketoconazole (10 μM and 100 µM) was used as a potential inhibitor of the UGTs 1A9, 2B7, and 2B15. Reactions containing only the cannabinoid vehicle (3% methanol) and without any inhibitor (cannabinoids) were used as a baseline reaction for 100% enzyme activity, while a reaction without UDPGA was used as a negative control. All experiments were performed in three independent experiments.
(§4) Determination of IC50 and Ki Values. […] The nonspecific binding constants (fu,inc) for cannabinoids in HEK293 microsomes, HLM, and HKM were previously determined and used to calculate the inhibition by unbound (‘free’) cannabinoid in each reaction. A nonlinear regression analysis and the following equation were used to calculate the IC50 values:(1) y = Bottom +Top − Bottom / 1 + 10^x − LogIC50A where ‘Bottom’ is the maximum observed inhibition (lowest percent activity) and ‘Top’ is the minimum observed inhibition (highest percent activity) for a given cannabinoid.

UGT2B7 = biological target: T2, UGT2B7 (Homo sapiens, UniProt P16662); test: Inhibition of R- and S-oxazepam glucuronidation in rUGT2B7 microsomes (UGT-overexpressing HEK293); format: biochemical; details: for IC50: rUGT2B7; for inhibition at 2 h, 100 µM: human, pH 7.4, rUGT2B7 microsomes
T2 construct: expressed in transfected cells; microsomal fraction
T2 sequence (P16662 24-529): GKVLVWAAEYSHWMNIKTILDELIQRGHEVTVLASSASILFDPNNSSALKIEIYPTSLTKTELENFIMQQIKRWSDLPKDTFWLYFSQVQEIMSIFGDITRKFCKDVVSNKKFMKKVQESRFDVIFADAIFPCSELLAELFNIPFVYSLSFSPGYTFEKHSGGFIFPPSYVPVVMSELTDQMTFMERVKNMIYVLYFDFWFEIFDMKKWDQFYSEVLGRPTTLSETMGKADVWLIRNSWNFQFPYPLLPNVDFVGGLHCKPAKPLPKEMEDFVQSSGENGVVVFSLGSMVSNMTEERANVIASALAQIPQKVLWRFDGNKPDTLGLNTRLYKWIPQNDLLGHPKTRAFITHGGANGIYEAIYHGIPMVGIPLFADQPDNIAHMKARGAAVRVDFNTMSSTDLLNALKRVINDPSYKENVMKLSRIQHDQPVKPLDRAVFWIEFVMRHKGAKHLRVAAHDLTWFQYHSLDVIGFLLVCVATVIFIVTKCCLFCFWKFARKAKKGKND
Protocol: as §1, §2, §3, §4

[1] = system: human liver microsomes (HLM); test: Inhibition of R- and S-oxazepam glucuronidation in human liver microsomes
Protocol: as §2, §3, §4
The inhibition constant (Ki) was generated from the in vitro IC50 values assuming competitive inhibition (based on the Cheng–Prusoff equation; [49]). Considering that there have been no reports of the irreversible inhibition (e.g., mechanism-based inhibition) of UGTs, competitive inhibition was assumed as the worst-case scenario (highest inhibition) among all feasible types of reversible inhibitions. The substrate concentration used in the incubations was below the reported Km; therefore, the Ki values were predicted using Equation (2):(2) Ki=IC50/S/Km+1 where Km is Michaelis–Menten constant for the substrate, S is the substrate concentration, and IC50 is half-maximal inhibitory concentration.

[2] = cited from earlier work
[3] = IC50 corrected with fu,inc, read-out: IC50,u, R-Oxazepam Glucuronide
[4] = read-out: IC50, R-Oxazepam Glucuronide
[5] = rUGT1A9 microsomes, 100 µM cannabinoid, vs control without cannabinoid
[6] = read-out: IC50, S-Oxazepam Glucuronide
[7] = rUGT2B7 microsomes, 100 µM cannabinoid
[8] = read-out: IC50,u, R-Oxazepam Glucuronide, IC50 corrected with fu,inc
[9] = read-out: Ki, R-Oxazepam Glucuronide, generated from IC50 assuming competitive inhibition
[10] = read-out: Ki, S-Oxazepam Glucuronide, generated from IC50 assuming competitive inhibition
[11] = read-out: Ki,u, R-Oxazepam Glucuronide, Ki corrected with fu,inc
[12] = read-out: Ki,u, S-Oxazepam Glucuronide, Ki corrected with fu,inc
[13] = overexpressing HEK293 cell lines

11-hydroxy-Δ^9-tetrahydrocannabinol [11-OH-THC]
IC50 (UGT1A9; [3]): 1 ± 0.6 µM | IC50 (UGT1A9; [4]): 13 ± 7.7 µM | Inhibition of R-oxazepam glucuronide formation (UGT1A9; [5]): 87% | IC50 (UGT2B7; [3]): 0.77 ± 0.64 µM | IC50 (UGT2B7; IC50 corrected with fu,inc, read-out: IC50,u, S-Oxazepam Glucuronide): 0.53 ± 0.26 µM | IC50 (UGT2B7; [4]): 9.9 ± 8.2 µM | IC50 (UGT2B7; [6]): 6.8 ± 3.3 µM | Inhibition of R-oxazepam glucuronidation (UGT2B7; [7]): 80% | Inhibition of S-oxazepam glucuronidation (UGT2B7; [7]): 81% | IC50 [1, 4]: 18 ± 5 µM | IC50 [1, 6]: 41 ± 25 µM | IC50 [1, 8]: 1.7 ± 0.47 µM | IC50 ([1]; read-out: IC50,u, S-Oxazepam Glucuronide, IC50 corrected with fu,inc): 3.9 ± 2.4 µM | Ki [1, 9]: 18 ± 4.9 µM | Ki [1, 10]: 34 ± 21 µM | Ki [1, 11]: 1.7 ± 0.46 µM | Ki [1, 12]: 3.2 ± 2 µM | unbound fraction (fu,inc) ([2]; incubation mixtures with HKM): 0.094 ± 0.014 | unbound fraction (fu,inc) ([2]; incubation mixtures with HLM): 0.094 ± 0.014 | unbound fraction (fu,inc) [2, 13]: 0.078 ± 0.042

C=C(C)[C@@H]1CCC(C)=C[C@H]1c1c(O)cc(CCCCC)cc1O [CBD, cannabidiol]
inhibition at 2 h, 10 µM (UGT1A9; human, pH 7.4, rUGT1A9 microsomes, 10 µM cannabinoid, vs control without cannabinoid, read-out: Inhibition of R-oxazepam glucuronide formation): 98% | inhibition at 2 h, 100 µM (UGT1A9; human, pH 7.4, rUGT1A9 microsomes, 100 µM cannabinoid, vs control without cannabinoid, read-out: Inhibition of R-oxazepam glucuronide formation): 99% | IC50 (UGT1A9; [3]): 0.053 ± 0.011 µM | IC50 (UGT1A9; [4]): 1.4 ± 0.29 µM | inhibition at 2 h, 100 µM (UGT2B7; 100 µM cannabinoid, read-out: Inhibition of R-oxazepam glucuronidation): 95% | inhibition at 2 h, 100 µM (UGT2B7; 100 µM cannabinoid, read-out: Inhibition of S-oxazepam glucuronidation): 89% | Ki [1, 9]: 16 ± 7.4 µM | Ki [1, 10]: 72 ± 32 µM | Ki [1, 11]: 0.82 ± 0.38 µM | Ki [1, 12]: 3.7 ± 1.6 µM | unbound fraction (fu,inc) ([2]; incubation mixtures with HKM): 0.062 ± 0.009 | unbound fraction (fu,inc) ([2]; incubation mixtures with HLM): 0.051 ± 0.008 | unbound fraction (fu,inc) [2, 13]: 0.038 ± 0.002

CCCCCc1cc(O)c2c(c1)OC(C)(C)[C@@H]1CCC(C)=C[C@@H]21 [THC, Δ^9-tetrahydrocannabinol]
IC50 (UGT1A9; [3]): 0.5 ± 0.31 µM | Inhibition of R-oxazepam glucuronide formation (UGT1A9; [5]): 83% | Inhibition of R-oxazepam glucuronidation (UGT2B7; [7]): 50% | IC50 [1, 4]: 34 ± 16 µM | IC50 [1, 6]: > 100 µM | IC50 [1, 8]: 1.6 ± 0.77 µM | Ki [1, 9]: 33 ± 15 µM | Ki [1, 10]: > 83 µM | Ki [1, 11]: 1.6 ± 0.74 µM | Ki [1, 12]: > 3.2 µM | unbound fraction (fu,inc) ([2]; incubation mixtures with HKM): 0.052 ± 0.005 | unbound fraction (fu,inc) ([2]; incubation mixtures with HLM): 0.048 ± 0.002 | unbound fraction (fu,inc) [2, 13]: 0.042 ± 0.003
